In US20090186809A1, “USE OF VALPROIC ACID FOR THE TOPICAL TREATMENT OF MILD TO MODERATE ACNE VULGARIS” (TOPOTARGET GERMANY AG, priority 2006, published 2009):

Experiments:
[1] = tested on: mild to moderate facial acne vulgaris; assay: double-blind, randomized clinical study: counting of facial acne lesions; assay type: in vivo, human; conditions: for patients displaying for the first time a reduction of ≧30% in the total counts of all acne lesions: topical once daily, VPA 3% gel, isotretinoin 0.05% gel; for mean reduction of the number of acne lesions: day 85 compared to baseline (day 1), topical monotherapy
Protocol: This study was carried out as a double-blind, randomized study. Under informed consent patients with mild to moderate facial acne vulgaris were enrolled in the study. The treatment period was 12 weeks.
(§1) VPA was provided as a clear off-white, semi-solid 3% gel (30 mg/ml VPA). After washing the face with a mild cleanser, the gel was applied daily to the clean and dry skin once daily.
As a comparator reference therapy the retinoid isotretinoin was provided as a 0.05% gel (0.5 mg isotretinoin/g).
• Assessment of the therapeutic efficacy compared to the baseline was evaluated separately by the investigator and by the patient according to a 7-point scale • Counting of lesions in the entire face • Investigator's overall assessment of improvement by means of a photo documentation.
• efficacy: change of total count of facial acne lesions from baseline to the end of week 12 (comparing day 1 to day 85, i.e., d1, d85)
• efficacy: time to reduction of acne lesions by >30% • count of acne lesions in the face after 2, 4, 8 and 12 weeks of treatment and its percentage and absolute change to baseline • safety/tolerability: safety laboratory parameters • clinical safety • patient's assessment of local tolerability
In the clinical study described in Example 1, also the time to reduction of the total counts by ≧30% of all acne lesions treated was investigated on each visit of the patients to the study hospital. Once the reduction had reached ≧30%, the actual at this point estimated reduction rate and the day of the visit was recorded.
In the clinical study described in Example 1, the counts of acne lesions treated were also assessed as counts of different types of lesions separately, i.e., recording the number of inflammatory lesions, and recording the number of non-inflammatory lesions separately.

[2] = VPA content in blood (serum) after topical application, HPLC; assay type: in vivo; conditions: human, read-out: serum level of VPA
Protocol: as §1
In parallel, an analysis of the VPA content in the blood of acne vulgaris patients treated topically with a 3% VPA containing medication was performed using HPLC based methodology, and the results are presented in FIG. 3. […] These serum concentration levels were measured after daily treatment with up to approx. 2.000 mg of a 3% VPA containing medication topically applied which refers to a total daily dose of VPA approx. 60 mg. If more or larger lesions would be treated, and therefore higher daily amounts of VPA would be topically applied, it is expected that accordingly higher serum levels may be obtained.

[3] = patients' assessment of local tolerability (5-point scale) and adverse events; assay type: in vivo, human; conditions: for assessments of local tolerability graded "acceptable" / assessments of local tolerability graded "poor" / assessments of local tolerability graded "well": percentage of all patient assessments over the study visits, topical
Protocol: • Safety laboratory parameters • Clinical safety examinations • Adverse events • Patient's assessment of local tolerability according to a 5-point scale.
In addition to the assessment of the therapeutical efficacy, the patients' assessments of local tolerability and the side effect profile was recorded in this clinical study described in example 1. FIG. 4 summarizes the patients' assessments of local tolerability which was recorded on each visit of the patients during the study period which took place on days 14, 24, 56 and 85. The patients assessed their perception of local tolerability according to the following grading scheme: […]

concentration at 56 day ([2]; day 56, daily topical up to approx. 2.000 mg of 3% VPA medication (approx. 60 mg VPA)) [ng/mL]	concentration at 85 day ([2]; day 85, daily topical up to approx. 2.000 mg of 3% VPA medication (approx. 60 mg VPA)) [ng/mL]	Structure (SMILES)	patients displaying for the first time a reduction of ≧30% in the total counts of all acne lesions ([1]; day 28)	patients displaying for the first time a reduction of ≧30% in the total counts of all acne lesions ([1]; day 85)	mean reduction of the number of acne lesions [1]	median counts of inflammatory lesions ([1]; end of treatment day 85, day 1 before treatment 30) [lesions]	median counts of non-inflammatory lesions ([1]; end of treatment day 85, day 1 before treatment 41) [lesions]	adverse events observed ([3]; patients treated topically, all resolved after end of study)	assessments of local tolerability graded "acceptable" [3] [%]	assessments of local tolerability graded "poor" [3] [%]	assessments of local tolerability graded "well" [3] [%]
≤ 2440	≤ 1590	CCCC(CCC)C(=O)O [VPA, 2-propyl-pentanoic acid]	three	two	approx. 57%	14.4	11.5	mild to moderate administration site conditions	23.8	4.8	61.9
–	–	CC1=C(/C=C/C(C)=C/C=C/C(C)=C\C(=O)O)C(C)(C)CCC1 [isotretinoin]	three	two	approx. 54%	–	–	–	40.5	11.9	38.1
